Experimental data from the NIST ThermoML archive (doi:10.1016/j.jct.2018.03.001).
Numbers after ± are expanded uncertainties.

Assay: molar enthalpy of vaporization or sublimation
Details: 298.15 K; Liquid; Static calorimetry

| molar enthalpy [kcal/mol] | SMILES |
| --- | --- |
| 14.8 ± 0.86 | NCCCN1CCOCC1 [N-(3-aminopropyl)morpholine] |
| 15.3 ± 0.932 | NCCN1CCOCC1 [4-morpholineethanamine] |
